Activity calls are given as the source filed them.
Assays:
[1] = HEp-2 cell cytotoxicity, dose response, cytotoxicity control for RSV inhibitor project, HTS (AID 2410); type: functional; details: human respiratory syncytial virus
Cytochrome P450 3A4 = Cytochrome P450 3A4 (Homo sapiens, UniProt P08684);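 further: CYP3A4 tested as one member of a cytochrome P450 panel screen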
Cytochrome P450 2C19 = Cytochrome P450 2C19 (Homo sapiens, UniProt P33261); experiment: Cytochrome panel assay with activity outcomes. Panel member name: p450-cyp2c19 Compounds with AC50 equal or less than 10 uM are considered active; type: functional; details: read-out: AC50
Sequence of Cytochrome P450 2C19 (P33261 whole entry): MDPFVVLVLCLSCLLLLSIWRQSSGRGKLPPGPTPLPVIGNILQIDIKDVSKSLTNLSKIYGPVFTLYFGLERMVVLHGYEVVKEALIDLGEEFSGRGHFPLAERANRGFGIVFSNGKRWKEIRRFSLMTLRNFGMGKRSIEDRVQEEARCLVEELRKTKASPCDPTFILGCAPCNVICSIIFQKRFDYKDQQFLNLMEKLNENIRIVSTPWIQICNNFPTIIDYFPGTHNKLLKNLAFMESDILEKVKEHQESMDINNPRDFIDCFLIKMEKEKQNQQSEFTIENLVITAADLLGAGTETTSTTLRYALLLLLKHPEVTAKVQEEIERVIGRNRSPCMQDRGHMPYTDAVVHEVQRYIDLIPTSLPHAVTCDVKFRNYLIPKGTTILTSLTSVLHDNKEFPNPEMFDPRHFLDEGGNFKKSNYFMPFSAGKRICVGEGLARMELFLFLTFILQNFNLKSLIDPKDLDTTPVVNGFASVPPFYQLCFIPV

[2] = biological target: T1, Heat shock factor protein 1 (Mus musculus, UniProt P38532); experiment: inhibition of MG132-induced HSE-luciferase signal, confirmation, cell-based, NIH3T3, luminescence, dose retest (AID 2382); type: functional;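 further: NIH3T3 fibroblasts with HSF1-driven luciferase reporter stressed by proteasome inhibitor MG132; luminescence from HSF1-driven luciferase expression after 8 hours of MG132 stress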
T1 sequence (P38532 whole entry): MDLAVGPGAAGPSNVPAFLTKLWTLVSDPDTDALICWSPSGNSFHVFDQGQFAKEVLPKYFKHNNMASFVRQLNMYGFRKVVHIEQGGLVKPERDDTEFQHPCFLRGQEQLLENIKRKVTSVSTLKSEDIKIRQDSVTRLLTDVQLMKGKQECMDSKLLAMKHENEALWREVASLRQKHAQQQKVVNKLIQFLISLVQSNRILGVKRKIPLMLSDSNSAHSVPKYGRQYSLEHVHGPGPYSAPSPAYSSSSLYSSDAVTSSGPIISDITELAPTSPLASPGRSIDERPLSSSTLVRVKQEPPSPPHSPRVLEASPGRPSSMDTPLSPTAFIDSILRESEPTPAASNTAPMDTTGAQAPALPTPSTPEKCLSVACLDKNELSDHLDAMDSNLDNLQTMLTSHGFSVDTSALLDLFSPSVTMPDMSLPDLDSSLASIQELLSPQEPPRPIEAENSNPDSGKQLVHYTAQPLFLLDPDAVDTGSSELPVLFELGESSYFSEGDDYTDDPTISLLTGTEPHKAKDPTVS

Cytochrome P450 1A2 = biological target: T2, Cytochrome P450 1A2 (Homo sapiens, UniProt P05177);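 further: PubChem cytochrome P450 panel assay, CYP1A2 panel member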
T2 sequence (P05177 whole entry): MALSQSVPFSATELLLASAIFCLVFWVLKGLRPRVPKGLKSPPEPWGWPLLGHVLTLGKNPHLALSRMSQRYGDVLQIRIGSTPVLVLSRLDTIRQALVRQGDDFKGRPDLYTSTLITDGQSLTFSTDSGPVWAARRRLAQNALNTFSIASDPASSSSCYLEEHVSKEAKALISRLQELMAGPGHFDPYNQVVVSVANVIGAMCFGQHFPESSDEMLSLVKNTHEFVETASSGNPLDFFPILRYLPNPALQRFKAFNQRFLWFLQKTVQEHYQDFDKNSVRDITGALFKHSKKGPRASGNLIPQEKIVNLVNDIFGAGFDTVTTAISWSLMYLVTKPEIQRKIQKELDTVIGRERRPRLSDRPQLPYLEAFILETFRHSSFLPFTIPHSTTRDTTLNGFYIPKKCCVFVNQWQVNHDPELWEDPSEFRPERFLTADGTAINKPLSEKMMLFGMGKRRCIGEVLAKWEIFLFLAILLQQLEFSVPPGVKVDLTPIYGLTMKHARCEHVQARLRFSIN

Streptococcus = experiment: Group A Streptococcus viability loss, dose response, counter-screen for streptokinase expression inhibitor project, luminescence, BacTiterGlo (AID 1915); type: functional, organism-based;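 further: potency for reduction of bacterial viability or growth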
[3] = test system: Streptococcus sp. 'group A'; experiment: growth inhibition of control SK(-) GAS strain, dose response, counter-screen for streptokinase expression inhibitor project, luminescence, kanamycin, BacTiterGlo, confirmation (AID 1900); type: functional, organism-based
Streptokinase A = biological target: T3, Streptokinase A (Streptococcus pyogenes serotype M1, UniProt P10520); experiment: S. pyogenes streptokinase expression inhibitors, potency, dose response, plasminogen activation absorbance, OD405 (AID 1914); type: functional, Streptococcus pyogenes M1 GAS;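 further: secreted streptokinase activity via plasminogen activation per viability signal from cell pellet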
T3 sequence (P10520 whole entry): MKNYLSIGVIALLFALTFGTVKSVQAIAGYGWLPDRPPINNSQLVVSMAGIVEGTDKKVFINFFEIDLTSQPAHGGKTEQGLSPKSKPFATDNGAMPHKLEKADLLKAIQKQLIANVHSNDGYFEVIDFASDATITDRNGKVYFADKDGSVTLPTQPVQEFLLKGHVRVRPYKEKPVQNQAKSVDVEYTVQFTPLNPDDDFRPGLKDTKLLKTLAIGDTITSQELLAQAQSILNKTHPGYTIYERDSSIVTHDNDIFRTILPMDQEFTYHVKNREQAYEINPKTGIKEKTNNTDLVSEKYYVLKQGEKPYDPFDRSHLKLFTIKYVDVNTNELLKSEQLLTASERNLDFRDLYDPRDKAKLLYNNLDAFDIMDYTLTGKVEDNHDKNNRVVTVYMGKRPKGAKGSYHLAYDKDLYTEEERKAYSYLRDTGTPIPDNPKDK

Cytochrome P450 2C9 = Cytochrome P450 2C9 (Homo sapiens, UniProt P11712)
Sequence of Cytochrome P450 2C9 (P11712 whole entry): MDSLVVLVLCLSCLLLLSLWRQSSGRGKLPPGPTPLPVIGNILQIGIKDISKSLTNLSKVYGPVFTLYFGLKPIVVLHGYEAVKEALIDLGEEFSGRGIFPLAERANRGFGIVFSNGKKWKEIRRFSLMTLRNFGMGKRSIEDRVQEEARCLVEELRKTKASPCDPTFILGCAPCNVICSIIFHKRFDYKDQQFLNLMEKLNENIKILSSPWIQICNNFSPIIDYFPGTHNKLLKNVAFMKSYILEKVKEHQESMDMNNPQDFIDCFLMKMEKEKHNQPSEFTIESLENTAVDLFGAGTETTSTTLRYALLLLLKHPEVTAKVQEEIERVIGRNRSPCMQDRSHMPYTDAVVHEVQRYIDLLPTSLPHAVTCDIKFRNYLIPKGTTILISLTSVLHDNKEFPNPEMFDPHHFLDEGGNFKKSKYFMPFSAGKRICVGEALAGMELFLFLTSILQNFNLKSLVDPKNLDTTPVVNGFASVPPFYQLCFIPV

Cytochrome P450 2D6 = Cytochrome P450 2D6 (Homo sapiens, UniProt P10635);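 further: CYP2D6 member of a cytochrome P450 panel assay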
Sequence of Cytochrome P450 2D6 (P10635 whole entry): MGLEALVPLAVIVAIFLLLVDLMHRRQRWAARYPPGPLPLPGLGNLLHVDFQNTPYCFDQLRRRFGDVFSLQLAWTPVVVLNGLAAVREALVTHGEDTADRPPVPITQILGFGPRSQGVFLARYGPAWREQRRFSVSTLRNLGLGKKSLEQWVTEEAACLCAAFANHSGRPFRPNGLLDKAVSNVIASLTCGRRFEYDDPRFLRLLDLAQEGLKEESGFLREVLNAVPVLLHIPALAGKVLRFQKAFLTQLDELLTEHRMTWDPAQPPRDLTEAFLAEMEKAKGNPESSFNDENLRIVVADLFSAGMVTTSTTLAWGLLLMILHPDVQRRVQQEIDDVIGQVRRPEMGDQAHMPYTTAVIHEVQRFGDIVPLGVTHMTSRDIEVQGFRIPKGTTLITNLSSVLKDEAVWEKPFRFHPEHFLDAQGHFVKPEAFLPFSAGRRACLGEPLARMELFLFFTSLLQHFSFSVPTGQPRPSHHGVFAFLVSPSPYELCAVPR

Sequence of Cytochrome P450 3A4 (P08684 whole entry): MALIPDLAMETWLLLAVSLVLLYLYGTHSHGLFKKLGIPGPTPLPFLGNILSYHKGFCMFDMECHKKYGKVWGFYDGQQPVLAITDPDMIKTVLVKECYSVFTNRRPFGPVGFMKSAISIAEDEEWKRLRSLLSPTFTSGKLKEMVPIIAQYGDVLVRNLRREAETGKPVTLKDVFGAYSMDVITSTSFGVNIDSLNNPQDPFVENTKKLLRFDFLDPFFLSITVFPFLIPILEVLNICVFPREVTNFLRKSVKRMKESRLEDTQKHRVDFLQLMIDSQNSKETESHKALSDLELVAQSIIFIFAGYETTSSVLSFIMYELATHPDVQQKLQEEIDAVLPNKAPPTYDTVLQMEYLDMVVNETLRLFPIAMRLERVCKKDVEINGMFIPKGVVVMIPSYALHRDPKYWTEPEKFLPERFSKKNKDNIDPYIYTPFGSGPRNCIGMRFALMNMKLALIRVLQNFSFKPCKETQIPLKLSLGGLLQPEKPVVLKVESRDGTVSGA

For O=C(Nc1ccc(/C=C/c2nc3ccccc3o2)cc1)c1c(F)cccc1F, which CC50 [1] is on record?
Its CC50 is > 50 µM (active).

Which AC50 (Cytochrome P450 3A4) does the source give for O=C(NCC1CCCO1)c1ccc2c(=O)n(Cc3ccco3)c(SCC(=O)N3CCCC3)nc2c1 (configuration not stated) here?
Its AC50 is 12.6 µM (inconclusive).

And the AC50 (Cytochrome P450 2C19)?
Its AC50 is 15.8 µM (inconclusive).

Which AC50 (Cytochrome P450 3A4) does the source give for O=S(=O)(NC(=Nc1ccc(F)cc1F)c1ccc(Cl)cc1)c1ccccc1 here?
The AC50 was 2.82 µM (inconclusive).

With CCCNC(=O)OC[C@@H]1O[C@H](CCO/N=C\c2ccc(C(=O)N3[C@H](c4ccc(C)cc4)[C@@H](C)CC[C@H]3C(=O)OC)cc2)C=C[C@@H]1Oc1ccc(OC)cc1 as the compound, how does the AC50 (Cytochrome P450 3A4) read?
The AC50 was 3.16 µM (inconclusive).

And the AC50 (Cytochrome P450 2C19)?
Its AC50 is 1.26 µM (inconclusive).

With CC(C)(C)c1ccc(OC(=O)c2cccnc2)cc1 as the compound, how does the EC50 [2] read?
Its EC50 is > 195 µM (not active).

Which AC50 (Cytochrome P450 3A4) does the source give for Cc1ccc(C)c(C(=O)CN2C3=NCCCN3c3ccccc32)c1 here?
Its AC50 is 12.6 µM (inconclusive).

What about the AC50 (Cytochrome P450 2C19) of the same compound?
Its AC50 is 39.8 µM (inconclusive).

With Ic1ccccc1CN[C@@H]1C2CCN(CC2)[C@H]1C(c1ccccc1)c1ccccc1 as the compound, how does the AC50 (Cytochrome P450 3A4) read?
Its AC50 is 20 µM (inconclusive).

And the AC50 (Cytochrome P450 1A2)?
The AC50 was 12.6 µM (inconclusive).

Which results are given for CCc1ccccc1NC(=O)NNS(=O)(=O)c1cc(C)ccc1C?
EC50 (Streptococcus): > 150 µM (not active); EC50 [3]: > 150 µM (not active); EC50 (Streptokinase A): 4.21 µM (active)

Which CC50 [1] does the source give for COc1ccc(-c2cc(C(F)(F)F)n3ncc(C(=O)N(C)Cc4ccccc4)c3n2)cc1 here?
Its CC50 is 32.9 µM (active).

For Cc1c([C@@H](C)[C@H]2NC[C@H](C)C[C@@H]2O)ccc2c1C[C@@H]1[C@H]2CC=C2C[C@@H](O)CC[C@@]21C, which AC50 (Cytochrome P450 3A4) is on record?
Its AC50 is 3.16 µM (inconclusive).

Which results are given for COc1ccc(Oc2ncc3nc(-c4ccc(OC)cc4)c(=O)n(C)c3n2)cc1?
AC50 (Cytochrome P450 3A4): 3.98 µM (inconclusive); AC50 (Cytochrome P450 1A2): 3.16 µM (inconclusive)

With CCOC(=O)C1CCCN(c2nc3ccccc3nc2C(C#N)C(=O)OCCOC)C1 (configuration not stated) as the compound, how does the CC50 [1] read?
The CC50 was 41.7 µM (active).

For CC1CCCCN1CC(=O)Nc1ccccc1Sc1ccccc1 (configuration not stated), which EC50 [2] is on record?
Its EC50 is > 195 µM (not active).

With CCOc1ccc(N2CSC(=S)N(c3ccc(OCC)cc3)C2)cc1 as the compound, how does the EC50 [2] read?
Its EC50 is > 195 µM (not active).

Which CC50 [1] does the source give for Cc1cc2cc3c(cc2nc1SCC(=O)N1c2ccccc2CC1C)OCO3 (configuration not stated) here?
The CC50 was 34 µM (active).

With O=C(Nc1ccc(-c2csc(Nc3ccccc3)n2)cc1)c1cc([N+](=O)[O-])cc(C(F)(F)F)c1 as the compound, how does the CC50 [1] read?
The CC50 was 14.6 µM (active).

What does the source list for O=C(O)/C=C/c1cn(-c2ncc(C(F)(F)F)cc2Cl)c2ccccc12?
AC50 (Cytochrome P450 2C9): 17.8 µM (inconclusive); AC50 (Cytochrome P450 2C19): 14.1 µM (inconclusive); AC50 (Cytochrome P450 1A2): 35.5 µM (inconclusive)

For C[n+]1c(/C=C/c2ccc(O)c3ncccc23)[se]c2ccccc21, which AC50 (Cytochrome P450 3A4) is on record?
Its AC50 is 3.98 µM (inconclusive).

And the AC50 (Cytochrome P450 2C9)?
Its AC50 is 6.31 µM (inconclusive).

And the AC50 (Cytochrome P450 2C19)?
Its AC50 is 3.98 µM (inconclusive).

For CC(=O)C1C(=O)c2c(cccc2[N+](=O)[O-])/C1=N\c1ccc(S(N)(=O)=O)cc1 (configuration not stated), which EC50 [2] is on record?
Its EC50 is > 195 µM (not active).

With COC(=O)CCC(=O)Nc1cccc(C(=O)Nc2cccc(Cl)c2)c1 as the compound, how does the AC50 (Cytochrome P450 3A4) read?
Its AC50 is 0.398 µM (inconclusive).

And the AC50 (Cytochrome P450 2D6)?
Its AC50 is 22.4 µM (inconclusive).

For CCCCNc1nc2cccnc2s1, which EC50 [2] is on record?
Its EC50 is > 195 µM (not active).

For CCN(CC)C(=O)COC(=O)c1ccc(C)c(NC(=O)c2ccco2)c1, which EC50 [2] is on record?
Its EC50 is > 195 µM (not active).

Which EC50 [2] does the source give for CN(C)S(=O)(=O)c1ccc(C(=O)OCCCNC2=NS(=O)(=O)c3ccccc32)cc1 here?
Its EC50 is 26 µM (active).

For CCOC(=O)c1c(C)[nH]c(C(=O)N2CCc3cc(OC)c(OC)cc3C2)c1C, which CC50 [1] is on record?
Its CC50 is 34.8 µM (active).

Which EC50 [2] does the source give for O=C(COC(=O)c1ccccc1SCC(=O)N1CCCC1)NC1CCS(=O)(=O)C1 (configuration not stated) here?
The EC50 was > 195 µM (not active).

Reference: ChEMBL document CHEMBL1201862, “PubChem BioAssay data set” (2004)
